According to paper PMC10770617, “27-Hydroxylation of oncosterone by CYP27A1 switches its activity from pro-tumor to anti-tumor” (Journal of Lipid Research, 2023):

How the values were obtained:
[1] = target: T1, HSD2 (11β-hydroxysteroid dehydrogenase type 2) (Homo sapiens, UniProt P80365); assay: inhibition of […]-CT to […]-OCDO conversion in HSD2-transfected HEK-293T lysate (TLC), Lineweaver-Burk and Dixon analysis; type: biochemical
T1 construct: gene HSD11B2; recombinant HSD2 (pCMV6-XL5 HSD2, SC122552) in HEK-293T cell lysate
T1 sequence (P80365 1-405): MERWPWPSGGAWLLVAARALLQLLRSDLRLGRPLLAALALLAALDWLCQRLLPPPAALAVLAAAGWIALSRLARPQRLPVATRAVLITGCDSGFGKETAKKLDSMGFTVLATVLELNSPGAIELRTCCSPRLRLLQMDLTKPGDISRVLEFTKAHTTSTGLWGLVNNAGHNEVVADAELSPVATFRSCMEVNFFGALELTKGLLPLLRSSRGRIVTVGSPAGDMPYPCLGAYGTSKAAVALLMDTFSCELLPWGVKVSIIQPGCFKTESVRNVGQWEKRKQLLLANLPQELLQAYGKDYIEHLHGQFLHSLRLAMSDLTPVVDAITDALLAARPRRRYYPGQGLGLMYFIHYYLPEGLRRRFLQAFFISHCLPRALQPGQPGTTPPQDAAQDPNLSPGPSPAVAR

CYP27A1 = target: T2, CYP27A1 (Homo sapiens, UniProt Q02318); assay: inhibition of 27-hydroxylation of […]-CT in cells at […] (TLC); about […] (MDA-231) and […] (HepG2) reduction; type: cell-based
T2 construct: endogenous, MDA-231 and HepG2 cells
T2 sequence (Q02318 34-531): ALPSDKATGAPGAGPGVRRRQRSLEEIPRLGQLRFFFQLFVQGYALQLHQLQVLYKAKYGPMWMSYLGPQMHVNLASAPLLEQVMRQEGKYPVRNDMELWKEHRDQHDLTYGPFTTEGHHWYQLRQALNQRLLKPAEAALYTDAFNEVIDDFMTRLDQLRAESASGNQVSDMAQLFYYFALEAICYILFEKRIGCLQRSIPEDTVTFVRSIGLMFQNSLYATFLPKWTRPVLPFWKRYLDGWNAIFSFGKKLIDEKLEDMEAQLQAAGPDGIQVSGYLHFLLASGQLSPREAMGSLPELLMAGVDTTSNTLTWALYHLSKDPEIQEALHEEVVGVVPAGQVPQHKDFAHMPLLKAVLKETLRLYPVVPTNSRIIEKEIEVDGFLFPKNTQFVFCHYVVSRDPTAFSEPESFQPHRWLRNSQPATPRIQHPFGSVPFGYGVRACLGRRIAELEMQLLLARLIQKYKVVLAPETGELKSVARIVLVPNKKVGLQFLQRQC

| Structure (SMILES) | Ki [1] | inhibition at 10 µM (CYP27A1) |
| --- | --- | --- |
| C[C@@H](CO)CCC[C@@H](C)[C@H]1CC[C@H]2[C@@H]3C[C@@H](O)[C@@]4(O)C[C@@H](O)CC[C@]4(C)[C@H]3CC[C@]12C [27H-CT, (25R)-cholestane-3β,5α,6β,26-tetrol] | 2300 nM | – |
| CC(O)(CS(=O)(=O)c1ccc(F)cc1)C(=O)Nc1ccc(C#N)c(C(F)(F)F)c1 (centres unmarked) [bicalutamide] | – | ~60% |
